Tested on: 883617-216-R-J1-PDC complex spheroid viability
Assay: Anticancer human tumor 883617-216-R-J1-PDC patient-derived bladder carcinoma cell line growth inhibition [POLQ]
Details: for IC50: curve of first compound; for viability, T/C: stronger effect = lower value
Method in brief: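 Three-cell-type spheroids modelling solid tumor plus stroma served as the readout system; POL inhibitors were tested individually and in combination, concentration ranges set by clinical Cmax where known.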

[1] = second compound 0.0316 µM, first compound 0.0316 µM
[2] = second compound 0.0316 µM, first compound 0.1 µM
[3] = second compound 0.0316 µM, first compound 0.316 µM
[4] = second compound 0.0316 µM, first compound 1 µM
[5] = second compound 0.0316 µM, first compound 3.16 µM
[6] = second compound 0.0316 µM, first compound 10 µM
[7] = second compound 0.1 µM, first compound 0.0316 µM
[8] = second compound 0.1 µM, first compound 0.1 µM
[9] = second compound 0.1 µM, first compound 0.316 µM
[10] = second compound 0.1 µM, first compound 1 µM
[11] = second compound 0.1 µM, first compound 3.16 µM
[12] = second compound 0.1 µM, first compound 10 µM
[13] = second compound 0.316 µM, first compound 0.0316 µM
[14] = second compound 0.316 µM, first compound 0.1 µM
[15] = second compound 0.316 µM, first compound 0.316 µM
[16] = second compound 0.316 µM, first compound 1 µM
[17] = second compound 0.316 µM, first compound 3.16 µM
[18] = second compound 0.316 µM, first compound 10 µM
[19] = second compound 1 µM, first compound 0.0316 µM
[20] = second compound 1 µM, first compound 0.1 µM
[21] = second compound 1 µM, first compound 0.316 µM
[22] = second compound 1 µM, first compound 1 µM
[23] = second compound 1 µM, first compound 3.16 µM
[24] = second compound 1 µM, first compound 10 µM
[25] = second compound 3.16 µM, first compound 0.0316 µM
[26] = second compound 3.16 µM, first compound 0.1 µM
[27] = second compound 3.16 µM, first compound 0.316 µM
[28] = second compound 3.16 µM, first compound 1 µM
[29] = second compound 3.16 µM, first compound 3.16 µM
[30] = second compound 3.16 µM, first compound 10 µM
[31] = second compound 10 µM, first compound 0.0316 µM
[32] = second compound 10 µM, first compound 0.1 µM
[33] = second compound 10 µM, first compound 0.316 µM
[34] = second compound 10 µM, first compound 1 µM
[35] = second compound 10 µM, first compound 3.16 µM
[36] = second compound 10 µM, first compound 10 µM
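Also: spheroids exposed to compounds for seven days before readout.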
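For viability, T/C in this document: 100% = DMSO vehicle control viability.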

CC1COCCN1c1cc(-c2ccnn2C)c2ccnc(-c3ccn[nH]3)c2n1 (stereo unspecified) + Nc1ccc(C#CCN(C(=O)Cc2ncc(C(F)(F)F)cc2C(F)(F)F)c2ccc(F)cc2)nn1
IC50 (second compound 0.0316 µM): 0.292 µM
IC50 (second compound 0.1 µM): 0.408 µM
IC50 (second compound 0.316 µM): 0.479 µM
IC50 (second compound 1 µM): 0.422 µM
IC50 (second compound 3.16 µM): 0.572 µM
IC50 (second compound 10 µM): 0.482 µM
viability, T/C [1]: 76.9%
viability, T/C [2]: 65.1%
viability, T/C [3]: 48%
viability, T/C [4]: 35.7%
viability, T/C [5]: 36.3%
viability, T/C [6]: 25.3%
viability, T/C [7]: 73.1%
viability, T/C [8]: 59.3%
viability, T/C [9]: 59.1%
viability, T/C [10]: 33.6%
viability, T/C [11]: 32.6%
viability, T/C [12]: 24.9%
viability, T/C [13]: 75.4%
viability, T/C [14]: 58.4%
viability, T/C [15]: 59%
viability, T/C [16]: 41.4%
viability, T/C [17]: 34.9%
viability, T/C [18]: 26%
viability, T/C [19]: 68.2%
viability, T/C [20]: 60.5%
viability, T/C [21]: 51.7%
viability, T/C [22]: 41.7%
viability, T/C [23]: 44.8%
viability, T/C [24]: 34.8%
viability, T/C [25]: 70.9%
viability, T/C [26]: 61.3%
viability, T/C [27]: 56.1%
viability, T/C [28]: 44%
viability, T/C [29]: 39.1%
viability, T/C [30]: 28.9%
viability, T/C [31]: 84.5%
viability, T/C [32]: 70%
viability, T/C [33]: 59.5%
viability, T/C [34]: 35.4%
viability, T/C [35]: 40.1%
viability, T/C [36]: 34.4%

CC1COCCN1c1cc(C2(S(C)(=N)=O)CC2)nc(-c2ccnc3[nH]ccc23)n1 (stereo unspecified) + Nc1ccc(C#CCN(C(=O)Cc2ncc(C(F)(F)F)cc2C(F)(F)F)c2ccc(F)cc2)nn1
IC50 (second compound 0.0316 µM): 5.98 µM
IC50 (second compound 0.1 µM): 5.7 µM
IC50 (second compound 0.316 µM): 4.48 µM
IC50 (second compound 1 µM): 4.27 µM
IC50 (second compound 3.16 µM): 6.2 µM
IC50 (second compound 10 µM): 3.53 µM
viability, T/C [1]: 110%
viability, T/C [2]: 108%
viability, T/C [3]: 89.2%
viability, T/C [4]: 76.8%
viability, T/C [5]: 59.7%
viability, T/C [6]: 42.5%
viability, T/C [7]: 82.7%
viability, T/C [8]: 101%
viability, T/C [9]: 89.8%
viability, T/C [10]: 76.4%
viability, T/C [11]: 62%
viability, T/C [12]: 39.6%
viability, T/C [13]: 96.7%
viability, T/C [14]: 111%
viability, T/C [15]: 93.1%
viability, T/C [16]: 73.4%
viability, T/C [17]: 56.7%
viability, T/C [18]: 40.2%
viability, T/C [19]: 99.5%
viability, T/C [20]: 90.3%
viability, T/C [21]: 87.5%
viability, T/C [22]: 65.4%
viability, T/C [23]: 56.6%
viability, T/C [24]: 37.4%
viability, T/C [25]: 114%
viability, T/C [26]: 93.1%
viability, T/C [27]: 97.6%
viability, T/C [28]: 82.3%
viability, T/C [29]: 63.8%
viability, T/C [30]: 39.4%
viability, T/C [31]: 98.1%
viability, T/C [32]: 105%
viability, T/C [33]: 102%
viability, T/C [34]: 83.7%
viability, T/C [35]: 52%
viability, T/C [36]: 37.5%

CCCS(=O)(=O)Nc1ccc(F)c(C(=O)c2c[nH]c3ncc(-c4ccc(Cl)cc4)cc23)c1F + Nc1ccc(C#CCN(C(=O)Cc2ncc(C(F)(F)F)cc2C(F)(F)F)c2ccc(F)cc2)nn1
IC50 (second compound 0.0316 µM): 9.41 µM
IC50 (second compound 0.1 µM): 8.35 µM
IC50 (second compound 0.316 µM): > 10 µM
IC50 (second compound 1 µM): > 10 µM
IC50 (second compound 3.16 µM): > 10 µM
IC50 (second compound 10 µM): > 10 µM
viability, T/C [1]: 91.8%
viability, T/C [2]: 104%
viability, T/C [3]: 91.6%
viability, T/C [4]: 102%
viability, T/C [5]: 106%
viability, T/C [6]: 47.2%
viability, T/C [7]: 98.2%
viability, T/C [8]: 86%
viability, T/C [9]: 109%
viability, T/C [10]: 112%
viability, T/C [11]: 85%
viability, T/C [12]: 43.5%
viability, T/C [13]: 104%
viability, T/C [14]: 92.8%
viability, T/C [15]: 103%
viability, T/C [16]: 111%
viability, T/C [17]: 91.7%
viability, T/C [18]: 54.5%
viability, T/C [19]: 111%
viability, T/C [20]: 103%
viability, T/C [21]: 89.2%
viability, T/C [22]: 92.4%
viability, T/C [23]: 88.7%
viability, T/C [24]: 50.7%
viability, T/C [25]: 111%
viability, T/C [26]: 102%
viability, T/C [27]: 110%
viability, T/C [28]: 98.3%
viability, T/C [29]: 99.6%
viability, T/C [30]: 59.7%
viability, T/C [31]: 106%
viability, T/C [32]: 107%
viability, T/C [33]: 118%
viability, T/C [34]: 125%
viability, T/C [35]: 95.2%
viability, T/C [36]: 57.6%
